In patent publication US9480259B2, “Pyrazolopyrans having herbicidal and pharmaceutical properties” (BASF SE, priority 2012, dated 2016):

Assays:
[1] = tested on: AMARE (Amaranthus retroflexus); assay: Greenhouse herbicidal test, post-emergence, AMARE; type: in vivo; conditions: Amaranthus retroflexus, application rate 1 kg/ha, scale 0 to 100, read-out: herbicidal activity against AMARE
Description: (§1) The seeds of the test plants were sown separately for each species. For the post-emergence treatment, the test plants were first grown to a height of 2 to 5 cm, depending on the plant habit, and only then treated with the active ingredients which had been suspended or emulsified in water. For this purpose, the test plants were either sown directly and grown in the same containers, or they were first grown separately as seedlings and transplanted into the test containers a few days prior to treatment. Depending on the species, the plants were kept at 10-25° C. or 20-35° C. The test period extended over 8 to 9 days. During this time, the plants were tended, and their response to the individual treatments was evaluated. Evaluation was carried out using a scale from 0 to 100. 100 means no emergence of the plants, or complete destruction of at least the aerial moieties, and 0 means no damage, or normal course of growth. A good herbicidal activity is given at values of at least 70 and a very good herbicidal activity is given at values of at least 85. The plants used in the greenhouse experiments belonged to the following species: [table]

SETFA (Setaria faberi) = assay: Greenhouse herbicidal test, post-emergence, SETFA; type: in vivo; conditions: application rate 1 kg/ha, scale 0 to 100, read-out: herbicidal activity against SETFA
Description: as §1

[2] = tested on: SETFA, AMARE, POLCO, CHEAL, GALAP; assay: Greenhouse herbicidal test, post-emergence, weed panel; type: in vivo; conditions: application rate 1 kg/ha, scale 0 to 100
Description: as §1

[3] = tested on: CHEAL (Chenopodium album); assay: Greenhouse herbicidal test, post-emergence, CHEAL; type: in vivo; conditions: Chenopodium album, application rate 1 kg/ha, scale 0 to 100, read-out: herbicidal activity against CHEAL
Description: as §1

[4] = target: Arabidopsis thaliana SHMT; assay: SHMT activity assay (ED50 SHMT), coupled with N5,N10-CH2-THF dehydrogenase, NADH at 340 nm; type: biochemical; conditions: values given as upper bounds
Method in brief: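 His-tagged SHMT purified on Ni-NTA. NADH formation followed at 340 nm for 30 min; ED50 from inhibition of initial velocity.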

GALAP (Galium aparine) = assay: Greenhouse herbicidal test, post-emergence, GALAP; type: in vivo; conditions: application rate 1 kg/ha, scale 0 to 100
Description: as §1

[5] = tested on: POLCO (Poligonum convolvulus); assay: Greenhouse herbicidal test, post-emergence, POLCO; type: in vivo; conditions: Poligonum convolvulus, application rate 1 kg/ha, scale 0 to 100, read-out: herbicidal activity against POLCO
Description: as §1

[6] = Arabidopsis thaliana SHMT enzyme assay

EC50 ([4]; Table 2) [nM] | EC50 [4, 6] [nM] | Compound | pest or weed control at 1000 g/ha [1] [%] | pest or weed control at 1000 g/ha (SETFA (Setaria faberi)) [%] | herbicidal activity against at least three of the weeds SETFA, AMARE, POLCO, CHEAL, GALAP [2] | pest or weed control at 1000 g/ha [3] [%] | herbicidal activity against GALAP (GALAP (Galium aparine)) | pest or weed control at 1000 g/ha [5] [%]
< 100 | – | Cc1n[nH]c2c1C(c1cc(OCC#N)cc(C(F)(F)F)c1)(C1CCC1)C(C#N)=C(N)O2 (stereo not drawn) [Compound 2.470] | ≥ 85 | ≥ 85 | good or very good | ≥ 85 | – | –
< 10 | – | COc1c(C#N)cc(C2(C3CCC3)C(C#N)=C(N)Oc3[nH]nc(C)c32)cc1C#N (stereo not drawn) [Compound 2.486] | ≥ 85 | – | good or very good | ≥ 70 | very good (a very good herbicidal activity is given at values of at least 85) | –
< 100 | – | Cc1n[nH]c2c1C(c1cc(C#N)cc(C#N)c1)(C1(F)CCC1)C(C#N)=C(N)O2 (stereo not drawn) [Compound 2.569] | ≥ 85 | – | good or very good | ≥ 85 | – | ≥ 85
< 10 | – | CCC(=O)N(C)c1cc(C#N)cc(C2(C3CCC3)C(C#N)=C(N)Oc3[nH]nc(C)c32)c1 (stereo not drawn) [Compound 2.611] | ≥ 85 | – | good or very good | ≥ 85 | – | ≥ 85
< 10 | – | COCC(=O)N(C)c1cc(C#N)cc(C2(C3CCC3)C(C#N)=C(N)Oc3[nH]nc(C)c32)c1 (stereo not drawn) [Compound 2.615] | ≥ 85 | – | good or very good | ≥ 85 | – | ≥ 85
– | < 10 | Cc1n[nH]c2c1C(c1cc(C#N)cc(N(C)C(=O)CC#N)c1)(C(C)C)C(C#N)=C(N)O2 (stereo not drawn) [Compound 2.662] | ≥ 85 | ≥ 85 | good or very good | ≥ 85 | – | –
– | < 10 | Cc1n[nH]c2c1C(c1cc(C#N)cc(N(C)C(=O)CCC#N)c1)(C(C)C)C(C#N)=C(N)O2 (stereo not drawn) [Compound 2.663] | ≥ 85 | ≥ 85 | good or very good | ≥ 70 | – | –
– | < 10 | Cc1n[nH]c2c1C(c1cc(C#N)cc(N(C)C(=O)CCCC#N)c1)(C(C)C)C(C#N)=C(N)O2 (stereo not drawn) [Compound 2.664] | ≥ 85 | ≥ 85 | good or very good | ≥ 85 | – | –
– | < 10 | Cc1n[nH]c2c1C(c1cc(C#N)cc(CCCC#N)c1)(C(C)C)C(C#N)=C(N)O2 (stereo not drawn) [Compound 2.675] | ≥ 85 | ≥ 70 | good or very good | ≥ 85 | – | –
– | < 10 | COCC(=O)N(C)c1cc(C#N)cc(C2(C(C)C)C(C#N)=C(N)Oc3[nH]nc(C)c32)c1 (stereo not drawn) [Compound 2.688] | ≥ 85 | ≥ 85 | good or very good | ≥ 85 | – | –
– | < 100 | CC(=O)NCC(=O)N(C)c1cc(C#N)cc(C2(C3CCC3)C(C#N)=C(N)Oc3[nH]nc(C)c32)c1 (stereo not drawn) [Compound 2.709] | ≥ 85 | ≥ 70 | good or very good | ≥ 85 | – | –
– | < 10 | Cc1n[nH]c2c1C(c1cc(Br)cc(N(C)C(=O)CC#N)c1)(C1CCC1)C(C#N)=C(N)O2 (stereo not drawn) [Compound 2.729] | ≥ 85 | ≥ 70 | good or very good | ≥ 85 | – | –
